Paper PMC8426418 (Therapeutic drug monitoring, 2021)
Where “and” joins values, the source holds several entries; their conditions need not be identical. Equal entries are not always repeated. Where two headings read alike, the source gives them in different places.

Columns and labels:
[1] = Steady-state plasma concentrations of BUP and metabolites in pregnancy; details: for Css (dose-normalized steady-state plasma concentration) / metabolite/BUP steady-state concentration ratio: geometric mean [range]; for steady-state concentration relative to BUP: pregnant women and postpartum
[2] = for change in formation clearance (CLf) during pregnancy compared to postpartum: T2 or T3 vs matched postpartum; for CLR (renal clearance) / CL renal: geometric mean [range]; for CL renal: female, human, urine and plasma, oral, CLR (renal clearance)
[3] = cited from earlier work
[4] = assay type: in vivo, human; details: at delivery, three subjects; for maternal plasma steady-state concentration / umbilical cord venous plasma steady-state concentration: mean±SE; for fetal to maternal ratio (umbilical cord venous plasma to maternal plasma concentration): steady-state
[5] = postpartum (PP) matched to T2, n=5
[6] = postpartum (PP) matched to T3, n=5

In the case of C[C@H]1NC(C)(C)CO[C@]1(O)c1cccc(Cl)c1 [OH-BUP, hydroxybupropion], the “Css (dose-normalized steady-state plasma concentration)” value [1, 5] is reported as 16.3 [4.9–39.6] μM/g, the “Css (dose-normalized steady-state plasma concentration)” value [1, 6] is reported as 13.3 [4.9–39.6] μM/g and the “Css (dose-normalized steady-state plasma concentration)” value ([1]; second trimester (T2), n=5) is reported as 15.1 [10.6–18.7] μM/g. The “Css (dose-normalized steady-state plasma concentration)” value ([1]; third trimester (T3), n=5) was 16.5 [6.3–30.9] μM/g, the “steady-state concentration relative to BUP” value ([1]; this study) was 28–33 fold and 30 fold and the “change in formation clearance (CLf) during pregnancy compared to postpartum” value (shortened to “change in formation clearance”) [2] was “no changes”. The “CLR (renal clearance)” value [2, 5] was 0.10 [0.02–0.54] L/h, the “CLR (renal clearance)” value [2, 6] was 0.10 [0.03–0.46] L/h and the “CLR (renal clearance)” value ([2]; second trimester (T2), n=5) was 0.20 [0.11–0.36] L/h. For the same compound, the “CLR (renal clearance)” value ([2]; third trimester (T3), n=5) was 0.08 [0.04–0.12] L/h, the “plasma concentration exceeding BUP concentration” value [3] was 3–30 fold and the “steady-state concentration relative to racemic BUP” value ([3]; non-pregnant subjects) was 28 fold.

For C[C@@H]1NC(C)(C)CO[C@@]1(O)c1cccc(Cl)c1 [S,S-OH-BUP], the “maternal plasma steady-state concentration” value [4] was 0.8 ± 0.6 µM/g, the “umbilical cord venous plasma steady-state concentration” value [4] was 0.4 ± 0.2 µM/g and the “Css (dose-normalized steady-state plasma concentration)” value [1, 5] was 0.78 [0.10–2.2] μM/g. For the same compound, the “metabolite/BUP steady-state concentration ratio” value [1, 5] was 1.5 [0.7–5.9], the “Css (dose-normalized steady-state plasma concentration)” value [1, 6] was 0.64 [0.10–2.2] μM/g and the “metabolite/BUP steady-state concentration ratio” value [1, 6] was 1.6 [0.8–5.9]. For the same compound, the “Css (dose-normalized steady-state plasma concentration)” value ([1]; second trimester (T2), n=5) was 0.73 [0.20–1.4] μM/g, the “metabolite/BUP steady-state concentration ratio” value ([1]; second trimester (T2), n=5) was 2.2 [1.0–6.0] and the “Css (dose-normalized steady-state plasma concentration)” value ([1]; third trimester (T3), n=5) was 0.83 [0.36–1.7] μM/g. The “metabolite/BUP steady-state concentration ratio” value ([1]; third trimester (T3), n=5) was 1.9 [0.9–8.7], the “CLR (renal clearance)” value [2, 5] was 0.35 [0.09–3.5] L/h and the “CLR (renal clearance)” value [2, 6] was 0.47 [0.09–3.5] L/h. The “CLR (renal clearance)” value ([2]; second trimester (T2), n=5) was 0.93 [0.31–3.4] L/h and the “CLR (renal clearance)” value ([2]; third trimester (T3), n=5) was 0.40 [0.24–0.72] L/h.

With C[C@H](NC(C)(C)C)[C@@H](O)c1cccc(Cl)c1 [Threo, threohydrobupropion] the “fetal to maternal ratio (umbilical cord venous plasma to maternal plasma concentration)” value [4] was 0.7±0.1, the “maternal plasma steady-state concentration” value [4] was 4.9 ± 5.3 µM/g and the “umbilical cord venous plasma steady-state concentration” value [4] was 3.7 ± 4.3 µM/g. The “Css (dose-normalized steady-state plasma concentration)” value [1, 5] was 4.1 [1.2–10.8] μM/g, the “metabolite/BUP steady-state concentration ratio” value [1, 5] was 7.8 [3.5–17.6] and the “Css (dose-normalized steady-state plasma concentration)” value [1, 6] was 4.7 [1.2–10.8] μM/g. For the same compound, the “metabolite/BUP steady-state concentration ratio” value [1, 6] was 11.5 [9.7–17.6], the “Css (dose-normalized steady-state plasma concentration)” value ([1]; second trimester (T2), n=5) was 3.4 [1.8–6.7] μM/g and the “metabolite/BUP steady-state concentration ratio” value ([1]; second trimester (T2), n=5) was 10.3 [4.8–23.1]. The “Css (dose-normalized steady-state plasma concentration)” value ([1]; third trimester (T3), n=5) was 4.9 [3.1–10.7] μM/g, the “metabolite/BUP steady-state concentration ratio” value ([1]; third trimester (T3), n=5) was 11.2 [5.6–16.6] and the “steady-state concentration relative to BUP” value ([1]; this study) was 8–10 fold and 10 fold. For the same compound, the “change in formation clearance” value [2] was “no changes”, the “CLR (renal clearance)” value [2, 5] was 2.4 [0.55–17.6] L/h and the “CLR (renal clearance)” value [2, 6] was 2.9 [0.59–17.6] L/h. The “CLR (renal clearance)” value ([2]; second trimester (T2), n=5) was 3.9 [1.7–8.6] L/h, the “CLR (renal clearance)” value ([2]; third trimester (T3), n=5) was 2.0 [1.1–2.8] L/h and the “plasma concentration exceeding BUP concentration” value [3] was 3–30 fold. For the same compound, the “steady-state concentration relative to racemic BUP” value ([3]; non-pregnant subjects) was 5 fold.

With CC(NC(C)(C)C)C(=O)c1cccc(Cl)c1 (stereo not drawn) [BUP, Bupropion, reference compound] the “maternal plasma steady-state concentration” value [4] was 0.5 ± 0.2 µM/g, the “umbilical cord venous plasma steady-state concentration” value [4] was 0.2 ± 0.1 µM/g and the “Css (dose-normalized steady-state plasma concentration)” value [1, 5] was 0.53 [0.11–1.3] μM/g. For the same compound, the “Css (dose-normalized steady-state plasma concentration)” value [1, 6] was 0.41 [0.11–1.1] μM/g, the “Css (dose-normalized steady-state plasma concentration)” value ([1]; second trimester (T2), n=5) was 0.33 [0.08–1.2] μM/g and the “Css (dose-normalized steady-state plasma concentration)” value ([1]; third trimester (T3), n=5) was 0.44 [0.19–1.2] μM/g. The CL renal ([2]; second trimester (T2), n=5) was 40 mL/min and the CL renal ([2]; third trimester (T3), n=5) was 30 mL/min.

For CC(NC(C)(C)C)C(O)c1cccc(Cl)c1 (stereo not drawn) [Erythro, erythrohydrobupropion], the “maternal plasma steady-state concentration” value [4] was 0.5 ± 0.5 µM/g, the “umbilical cord venous plasma steady-state concentration” value [4] was 0.3 ± 0.3 µM/g and the “Css (dose-normalized steady-state plasma concentration)” value [1, 5] was 0.67 [0.25–1.7] μM/g. For the same compound, the “metabolite/BUP steady-state concentration ratio” value [1, 5] was 1.3 [0.5–3.2], the “Css (dose-normalized steady-state plasma concentration)” value [1, 6] was 0.80 [0.25–1.7] μM/g and the “metabolite/BUP steady-state concentration ratio” value [1, 6] was 1.9 [1.2–3.2]. The “Css (dose-normalized steady-state plasma concentration)” value ([1]; second trimester (T2), n=5) was 0.49 [0.33–0.78] μM/g, the “metabolite/BUP steady-state concentration ratio” value ([1]; second trimester (T2), n=5) was 1.5 [0.4–4.2] and the “Css (dose-normalized steady-state plasma concentration)” value ([1]; third trimester (T3), n=5) was 0.63 [0.52–0.79] μM/g. For the same compound, the “metabolite/BUP steady-state concentration ratio” value ([1]; third trimester (T3), n=5) was 1.4 [0.6–2.7], the “steady-state concentration relative to BUP” value ([1]; this study) was “similar” and the “change in formation clearance” value [2] was “no changes”. The “CLR (renal clearance)” value [2, 5] was 1.6 [0.36–9.7] L/h, the “CLR (renal clearance)” value [2, 6] was 1.9 [0.36–9.7] L/h and the “CLR (renal clearance)” value ([2]; second trimester (T2), n=5) was 2.1 [0.91–4.4] L/h. The “CLR (renal clearance)” value ([2]; third trimester (T3), n=5) was 1.2 [0.74–1.7] L/h and the “plasma concentration exceeding BUP concentration” value [3] was 3–30 fold.

For CC(NC(C)(C)C)C(=O)c1ccc(O)c(Cl)c1 (stereo not drawn) [4’OH-BUP, 4’-hydroxy-bupropion], the “change in formation clearance” value [2] was “no changes”.

For C[C@@H](NC(C)(C)C)C(=O)c1cccc(Cl)c1 [R-BUP, R-bupropion, reference compound], the “circulating concentration of R-BUP relative to S-BUP” value [3] is given as 3- to 6 fold.

For C[C@H]1NC(C)(C)CO[C@]1(O)c1cccc(Cl)c1 [R,R-OH-BUP], the “fetal to maternal ratio (umbilical cord venous plasma to maternal plasma concentration)” value [4] was 0.4±0.1, the “maternal plasma steady-state concentration” value [4] was 19.1 ± 12.0 µM/g and the “umbilical cord venous plasma steady-state concentration” value [4] was 6.4 ± 3.1 µM/g. For the same compound, the “Css (dose-normalized steady-state plasma concentration)” value [1, 5] was 15.9 [5.5–35.7] μM/g, the “metabolite/BUP steady-state concentration ratio” value [1, 5] was 32.5 [15.8–77.2] and the “Css (dose-normalized steady-state plasma concentration)” value [1, 6] was 14.0 [5.5–35.7] μM/g. For the same compound, the “metabolite/BUP steady-state concentration ratio” value [1, 6] was 35.6 [15.2–77.2], the “Css (dose-normalized steady-state plasma concentration)” value ([1]; second trimester (T2), n=5) was 15.8 [10.0–22.2] μM/g and the “metabolite/BUP steady-state concentration ratio” value ([1]; second trimester (T2), n=5) was 43.8 [16.4–178.7]. For the same compound, the “Css (dose-normalized steady-state plasma concentration)” value ([1]; third trimester (T3), n=5) was 13.7 [5.9–21.2] μM/g, the “metabolite/BUP steady-state concentration ratio” value ([1]; third trimester (T3), n=5) was 33.7 [13.5–99.1] and the “R,R-OH-BUP steady-state concentration relative to S,S-OH-BUP” value ([1]; this study) was 14–20 fold. For the same compound, the “CLR (renal clearance)” value [2, 5] was 0.08 [0.02–0.45] L/h, the “CLR (renal clearance)” value [2, 6] was 0.09 [0.03–0.35] L/h and the “CLR (renal clearance)” value ([2]; second trimester (T2), n=5) was 0.15 [0.07–0.32] L/h. For the same compound, the “CLR (renal clearance)” value ([2]; third trimester (T3), n=5) was 0.07 [0.05–0.09] L/h, the “R,R-OH-BUP exposure relative to S,S-OH-BUP” value [3] was “up to 65 fold” and the “R,R-OH-BUP concentration relative to S,S-OH-BUP” value ([3]; non-pregnant subjects) was 40–65 fold.
